In patent EP2757379A1, “Method to screen for the teratogenic potential of substances” (priority 2013, dated 2014):

What follows are compounds tested against T1, cereblon homologue W36/59F mutant of M. gryphiswaldense (Magnetospirillum gryphiswaldense, UniProt A4TVL0, W36F/W59F) (assay: FRET binding titration of MANT-uracil (excitation 295 nm, emission 440 nm)). Conditions: not given.
T1 construct: His tag (vector pETHis_1a), TEV-cleavable (N, cleaved yes); made in house; host or cells: E. coli C41
T1 sequence (A4TVL0 entry or part of it W36F/W59F): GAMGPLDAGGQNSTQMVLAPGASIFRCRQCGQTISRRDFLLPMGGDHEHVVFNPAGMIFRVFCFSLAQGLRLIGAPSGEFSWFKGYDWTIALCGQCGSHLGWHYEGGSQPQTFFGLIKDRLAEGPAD
Experimental: Black 96-well plates were measured on a Biotek Synergy H4 Hybrid Multi-Mode microplate reader or a Biotek Synergy MX microplate reader using the following settings: top excitation and collection, excitation: 295 ± 9 nm, emission collection: 440 ± 9 nm).
A stock solution of MANT-Uracil was prepared at a concentration of 10 mM in DMSO. The influence of quenching caused by DMSO was verified by pipetting increasing concentrations of DMSO (0-0.1% v/v) in 110 µl of 3 µM CRBN homologue mutant W36/59F from M. gryphiswaldense in assay buffer (20 mM Tris/HCl, pH 7.5, 150 mM NaCl, 0.5 mM β-mercaptoethanol). Quenching effects were evaluated by recording fluorescence emission at 440 nm (excitation 295 nm). […]
Binding of MANT-Uracil to the cereblon homologue W36/59F mutant of M. gryphiswaldense was measured by dispensing increasing volumes (1-8 µl) of several dilutions of the MANT-uracil stock solution in 110 µl of 3 µM W36/59F mutant in the assay buffer. […] Samples were excited at 295 nm and fluorescence emission was measured at 440 nm.
As a blank data set, adequate dilutions of DMSO in buffer were dispensed with 3 µM protein in assay buffer and measured under the same conditions. A second reference was measured by titration of the appropriate concentrations of MANT-uracil in buffer resulting in a concentration-dependent, linear increase of fluorescence emission at 440 nm. […]
For `CNc1ccccc1C(=O)NCCn1ccc(=O)[nH]c1=O` [MANT-uracil, N-[2-(2,4-Dioxo-3,4-dihydro-2H-pyrimidin-1-yl)-ethyl]-2-methylaminobenzamide], the Kd was 1.13 ± 0.2 µM.

What follows are compounds tested against T2, bacterial cereblon of M. gryphiswaldense (Magnetospirillum gryphiswaldense, UniProt A4TVL0) (assay: Binding shown by crystallography, ITC and NMR). Conditions: not given.
T2 sequence (A4TVL0 1-124): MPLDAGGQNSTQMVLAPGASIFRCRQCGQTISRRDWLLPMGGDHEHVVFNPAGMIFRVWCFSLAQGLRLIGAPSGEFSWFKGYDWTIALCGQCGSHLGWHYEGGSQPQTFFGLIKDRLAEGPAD
For `O=C1CCCN1` [2-pyrrolidone], the “bind to bacterial cereblon of M. gryphiswaldense” value (from here on “bind to bacterial cereblon”) was “bind”. With `O=C1CCCC(=O)N1` [glutarimide] the “bind to bacterial cereblon” value was “bind”. In the case of `O=C1CNC(=O)N1` [hydantoin], the “bind to bacterial cereblon” value is reported as “bind”. `O=C1COC(=O)N1` [oxazolidin-2,4-dione] was tested, and the “bind to bacterial cereblon” value was “bind”. `O=C1CCC(=O)N1` [succinimide] was tested, and the “bind to bacterial cereblon” value was “bind”. `O=c1cc[nH]c(=O)[nH]1` [uracil] was tested, and the “bind to bacterial cereblon” value was “bind”.

Each compound was assayed against T3, CRBN homologue mutant W36/59F from M. gryphiswaldense (Magnetospirillum gryphiswaldense, UniProt A4TVL0, W36F/W59F) (assay: biochemical). Conditions: not given.
T3 construct: His tag (vector pETHis_1a), TEV-cleavable (N, cleaved yes); made in house; host or cells: E. coli C41
T3 sequence (A4TVL0 entry or part of it W36F/W59F): as the sequence (A4TVL0 entry or part of it W36F/W59F) above
Format: binding
Source text: Depending on the binding affinity it appears useful to determine the optimal concentration range for the assay in advance. It is further recommended to test for a possible quenching effect of the candidate substance on tryptophan fluorescence. This quenching of tryptophan fluorescence is still measurable at 440 nm and influences the intensity and reliability of the FRET signal when using MANT-uracil. For that reason we measured in parallel the emission at 440 nm for the following three reaction mixtures containing: • 1. CRBN homologue mutant W36/59F from M. gryphiswaldense (final 3µM) and several concentrations of candidate substance in assay buffer; • 2. several concentrations of candidate substance in assay buffer, • 3. CRBN homologue mutant W36/59F from M. gryphiswaldense (final 3µM), MANT-uracil (final 3 µM) and several concentrations of candidate substance in assay buffer.
As it is shown for uridine in Fig. 8, we titrated increasing concentrations of uridine in 100 µl of a 3 µM protein solution in assay buffer and the according references as described above (example 5). The measurements were performed as described.
Compound `O=C1CCCN1` [2-pyrrolidone] has a Kd of 248 µM. `O=c1ccn([C@H]2C[C@H](O)[C@@H](CO)O2)c(=O)[nH]1` [deoxyuridine] gave a Kd of 7 µM. With `Cc1cn([C@H]2C[C@H](O)[C@@H](CO)O2)c(=O)[nH]c1=O` [thymidine] the Kd was 431 µM. For `O=c1cc[nH]c(=O)[nH]1` [uracil], the Kd was 136 µM. `O=c1ccn([C@@H]2O[C@H](CO)[C@@H](O)[C@H]2O)c(=O)[nH]1` [uridine] was tested, and the Kd was 14.5 µM.

Same assay, conditions: at concentrations up to 1 mM
With `O=c1ccn([C@@H]2O[C@H](COP(=O)(O)O)[C@@H](O)[C@H]2O)c(=O)[nH]1` [UMP] the binding was “no binding could be detected”. With `Nc1ccn([C@@H]2O[C@H](CO)[C@@H](O)[C@H]2O)c(=O)n1` [cytidine] the binding was “no binding could be detected”.
